{
  "source": "paper PMC10353061",
  "about": "(ACS Pharmacology & Translational Science, 2023)",
  "key": {"[1]": {"test_system": "β-catenin/Tcf-4 interaction", "assay": "Co-immunoprecipitation of β-catenin and Myc-tagged Tcf-4 in HCT116 cells", "type": "cell-based, human", "details": "HCT116 transfected with Myc-tagged Tcf-4, LiCl 50 mM, 50 μM, 24 h", "procedure": "Toward this end, we performed a co-immunoprecipitation study in HCT116 cells transfected with Myc-tagged Tcf-4, treated with the two compounds, and immunoprecipitated with Myc antisera.\nHCT116 cells were transiently transfected with the Myc-tagged Tcf-4 plasmid and treated with LiCl (50 mM) and 9 (50 μM) or 10 (50 μM) for 24 h. Lysates were immunoprecipitated using Myc-agarose beads and western blot analysis was performed. […] Myc-agarose beads saturated with the Myc-blocking peptide before immunoprecipitation were used as a negative control.\nCo-immunoprecipitation assays were performed as previously described.[16],[60] Briefly, 2 × 10^4/cm^2 HCT116 cells were seeded in a 100 mm dish and incubated overnight at 37 °C. Cells were transfected with pcDNA/Myc Tcf-4 (Addgene plasmid #16512; http://n2t.net/addgene:16512; RRID:Addgene_16512)[29] and, after overnight incubation, were starved for 8 h in a medium containing Opti-MEM (#31985070, Thermo Fisher Scientific), FBS 0.5%, pen/strep 1%, NaPyr 1%, NeAA 1%, and then co-treated with 50 mM LiCl and DMSO or 50 μM compound 9 or 50 μM compound […] for 24 h. Cells were collected at the end of the treatments and lysed in a buffer containing 0.5% Triton X-100, 0.5 mM EDTA, and 1 mM DTT. […] Chemioluminescence was detected using WesternBright ECL (#K-12045-D50, Advansta), according to the manufacturer’s protocol."}, "SW480 cells": {"test_system": "SW480 cells", "assay": "Cell viability (XTT) of SW480 colon cancer cells", "type": "cell-based", "procedure": "PKCδ has been recognized to be a proapoptotic kinase; its cleavage and activation promote apoptotic cell death (Table 2).[33]\nCell viability was evaluated by XTT[55] (SW480 cells) or MTT[56] (HCT116 cells) colorimetric assays. Briefly, cells (range 10–30 × 10^3 cells/well) were seeded in 96-well microculture plates and then exposed to increasing concentrations of different compounds (range 0–300 μM) for 48 or 72 h. […] Absorbance at 450 nm and a reference wavelength of 650 nm was then measured using a microplate spectrophotometer (Multiskan FC Microplate Photometer, Thermo Scientific, Waltham, MA). The cell growth inhibition rate was calculated utilizing the following formula: inhibition rate (%) = […] × 100, where Control OD is the absorbance of the negative control and Sample OD is the absorbance of the test sample. The IC50 values were determined with GraphPad Prism 5 through constructed dose–response curves."}, "Myc": {"test_system": "Myc", "assay": "Myc and β-catenin expression (western blot, qPCR) in LiCl-treated HCT116 cells", "type": "cell-based, human", "details": "HCT116, LiCl 50 mM, 24 h", "procedure": "To this end, HCT116 cells were treated for 24 h with 50 mM LiCl and increasing concentrations (10–50–100 μM) of the two compounds.\nFigure 7 Top panels. […] Vinculin was used as a loading control. […] Bottom panels. c-Myc mRNA levels were measured by qPCR and normalized to the expression of β-actin mRNA and expressed as fold change relative to the control sample. Results represent the mean ± SD of three independent experiments, each performed in triplicate. **p < 0.01, ***p < 0.001 as determined by ANOVA.\nBriefly, total proteins from the cells in each group were subjected to 12% denaturing sodium dodecyl sulfate-polyacrylamide gel electrophoresis (SDS-PAGE). The proteins were then transferred onto a poly(vinylidene fluoride) (PVDF) membrane (Millipore). […] After the membrane was fully washed, it was incubated with secondary antibodies at 37 °C for 45 min goat anti-rabbit IgG H&L (HRP) (ab97051), Abcam, MA. The membrane was washed with Tris-buffered saline/Tween-20 (TBST) 4 times at room temperature for 14 min each time. Next, the samples were exposed and imaged (Sigma-Aldrich Chemical) using the enhanced chemiluminescence (ECL) method (Pierce Biotechnology)."}, "SW620 cells": {"test_system": "SW620 cells", "assay": "Inhibition of SW620 cells", "type": "cell-based", "details": "Homo sapiens, SW-620, in the combination 9 at constant 0.25 μM"}},
  "data": [
    {"smiles": "O=S(=O)(Nc1ccc(-c2ccccn2)cc1)c1ccc(Br)cc1", "note": "[Compound 9, 4-Bromo-N-(4-(pyridin-2-yl)phenyl)benzenesulfonamide]", "values": [
      {"measurement": "association between β-catenin and Tcf-4 (co-immunoprecipitation)", "setting": "[1]", "result": "completely abrogated the association"},
      {"measurement": "improvement in SW480 cell growth inhibition compared with 5-FU", "setting": "SW480 cells", "result": 6, "unit": "fold"},
      {"measurement": "inhibition of Myc expression", "setting": "Myc; 10 μM", "result": "about 2.5 fold"},
      {"measurement": "protein and mRNA levels of Myc", "setting": "Myc; 10–50–100 μM", "result": "significant dose-dependent inhibition"},
      {"measurement": "β-catenin protein levels", "setting": "Myc; 10–50–100 μM", "result": "reduced only at the highest dose"},
      {"measurement": "EC50", "setting": "SW620 cells", "result": 37, "unit": "µM"}
    ]}
  ]
}
